This note sets out measurements from patent US11274095B2, “Modulators of methyl modifying enzymes, compositions and uses thereof” (Constellation Pharmaceuticals, Inc., priority 2018, dated 2022).

The target of one test is PRC2 containing wt EZH2 (Homo sapiens (Human), UniProt Q15910). The test can be described thus: EZH2 biochemical assay (IC50), 3H-SAM incorporation into biotinylated H3 peptide. As to conditions: 30 pM PRC2 with wt EZH2, 3-5 h pre-incubation. As for the experimental part:
EZH2 biochemical assay (IC50): Compound potencies were assessed through incorporation of ^3H-SAM into a biotinylated H3 peptide. Specifically, 30 pM PRC2 containing wt EZH2 (pentameric complex prepared in-house) was pre-incubated with 450 nM SAM, 450 nM ^3H-SAM, 2 μM H3K27me3 activating peptide (H2N-RKQLATKAAR(Kme3)SAPATGGVKKP-amide) and compounds (as 10 point duplicate dose response titrations in DMSO, final assay 0.8% DMSO (v/v)) for 3-5 h in 50 mM Tris (pH 8.5), 1 mM DTT, 0.07 mM Brij-35, 0.1% BSA, and 0.8% DMSO in a total volume of 12.5 μl. Reaction was initiated with biotinylated H3 substrate peptide (H2N-RKQLATKAAR(Kmel)SAPATGGVKKP-NTPEGBiot) as a 2 μM stock in 12.5 μl of buffer and allowed to react at room temperature for 18-22 h. Quenching was accomplished by addition of 20 μl of STOP solution (50 mM Tris (pH 8.5), 200 mM EDTA, 2 mM SAH). 35 μl of the quenched solution was transferred to streptavidin coated FlashPlates (PerkinElmer), incubated 1-2 h, washed, and read in a TopCount Reader (PerkinElmer). IC50s were calculated in Genedata Screener using non-linear least square four parameter fits, where the four parameters were IC50, Hill slope, pre-transitional baseline (0% INH), and post-transitional baseline (100% INH).

A further test relates to H3K27me3 in Hela cells. The test can be described thus: H3K27me3 Alpha Hela Assay (AlphaLISA). It is filed as cell-based. The conditions noted are these: Homo sapiens, HeLa, 72 h. The protocol:
H3K27me3 Alpha Hela Assay (AlphaLISA). Ten different doses of each test compound (in a series of 3-fold dilutions) were plated in duplicate 384-well tissue culture treated plates (Catalog #6007680; Perkin Elmer, Waltham, Mass.). Hela cells grown in culture were trypsinized and counted using a Countess® cell counter (Catalog #C10281; Life Technologies, Grand Island, N.Y.). Cell were diluted to 67,000 cells per mL in10% DMEM (Catalog #10569-010 Life Technologies, Grand Island, N.Y.) and 15 μL (1,000 cells) were plated into each well using the Biotek MicroFlo™ Select Dispenser (BioTek Instruments, Inc. Vermont, USA),) of the 384-well plate. Plates were incubated at 37° C./5% CO2 for 72 hrs. One of the duplicate plates was processed for HeLa assay and the other for viability. 5 μL of Cell-Histone Lysis buffer (1×) (Catalog #AL009F1 Perkin Elmer; Waltham, Mass.) per well was added to the plate processed for AlphaLISA and the plate was incubated at RT for 30 minutes on a plate shaker with low speed (Model# 4625-Q Thermo Scientific; Waltham, Mass.). Then, 10 μL per well Histone Extraction buffer (catalog #AL009F2; Perkin Elmer; Waltham, Mass.) was added and the plate further incubated at RT for 20 min on plate shaker with low speed. Next, 10 μL of 5× mix of anti-K27me3 acceptor beads plus Biotinylated anti-Histone H3 (C-ter) Antibody (diluted to 3 nM final) (Catalog #AL118 Perkin Elmer; Waltham, Mass.) was added in each well. Dilution of the acceptor beads and anti-Histone H3 was done in 1× Histone Detection buffer (Catalog #AL009F3 Perkin Elmer; Waltham, Mass.) which was produced by diluting the 10× stock provided. The plate was sealed with an aluminum plate sealer and incubated at 23° C. for 60 min. Next, 10 μL 5× solution of Streptavidin Donor beads were added (Catalog #6760002 Perkin Elmer; Waltham, Mass.) (20 μg/mL final in 1× Histone Detection Buffer), =plate was sealed with Aluminum plate sealer and incubated at 23° C. for 30 min. The plates were then read using an EnVision-Alpha Reader (model #2104 Perkin Elmer; Waltham, Mass.). […]

Chain of PRC2 containing wt EZH2 (Q15910 whole entry): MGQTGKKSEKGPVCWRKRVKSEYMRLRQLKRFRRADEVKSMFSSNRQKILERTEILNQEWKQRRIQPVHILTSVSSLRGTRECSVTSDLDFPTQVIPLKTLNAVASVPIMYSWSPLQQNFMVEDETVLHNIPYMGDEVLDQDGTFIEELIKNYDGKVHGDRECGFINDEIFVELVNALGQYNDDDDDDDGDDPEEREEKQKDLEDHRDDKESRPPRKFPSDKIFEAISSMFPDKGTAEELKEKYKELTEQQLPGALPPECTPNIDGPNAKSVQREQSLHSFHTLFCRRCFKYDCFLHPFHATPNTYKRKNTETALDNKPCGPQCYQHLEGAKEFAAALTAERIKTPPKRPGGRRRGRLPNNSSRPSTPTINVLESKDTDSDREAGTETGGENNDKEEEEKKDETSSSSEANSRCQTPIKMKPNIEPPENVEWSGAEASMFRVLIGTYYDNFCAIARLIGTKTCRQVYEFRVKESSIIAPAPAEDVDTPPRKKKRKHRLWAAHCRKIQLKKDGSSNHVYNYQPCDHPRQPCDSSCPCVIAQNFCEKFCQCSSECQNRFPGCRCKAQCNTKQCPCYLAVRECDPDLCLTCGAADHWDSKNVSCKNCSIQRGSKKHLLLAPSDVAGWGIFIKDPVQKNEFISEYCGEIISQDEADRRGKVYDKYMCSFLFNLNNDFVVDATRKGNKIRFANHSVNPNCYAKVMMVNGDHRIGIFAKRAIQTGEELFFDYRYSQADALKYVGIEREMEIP
Chain of PRC2 containing wt EZH2 (O75530 whole entry partner): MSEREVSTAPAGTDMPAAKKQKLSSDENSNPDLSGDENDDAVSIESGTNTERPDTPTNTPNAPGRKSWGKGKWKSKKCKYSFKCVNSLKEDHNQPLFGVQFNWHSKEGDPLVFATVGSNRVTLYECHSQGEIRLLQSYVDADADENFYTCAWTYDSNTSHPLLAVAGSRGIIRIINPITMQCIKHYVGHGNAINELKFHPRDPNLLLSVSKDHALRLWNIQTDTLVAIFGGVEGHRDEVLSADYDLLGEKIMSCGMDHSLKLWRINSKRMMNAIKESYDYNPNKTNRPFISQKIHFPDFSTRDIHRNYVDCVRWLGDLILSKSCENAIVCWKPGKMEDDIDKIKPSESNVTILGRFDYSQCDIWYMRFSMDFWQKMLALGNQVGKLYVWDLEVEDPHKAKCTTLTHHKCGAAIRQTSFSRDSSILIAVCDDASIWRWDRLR
Chain of PRC2 containing wt EZH2 (Q15022 whole entry partner): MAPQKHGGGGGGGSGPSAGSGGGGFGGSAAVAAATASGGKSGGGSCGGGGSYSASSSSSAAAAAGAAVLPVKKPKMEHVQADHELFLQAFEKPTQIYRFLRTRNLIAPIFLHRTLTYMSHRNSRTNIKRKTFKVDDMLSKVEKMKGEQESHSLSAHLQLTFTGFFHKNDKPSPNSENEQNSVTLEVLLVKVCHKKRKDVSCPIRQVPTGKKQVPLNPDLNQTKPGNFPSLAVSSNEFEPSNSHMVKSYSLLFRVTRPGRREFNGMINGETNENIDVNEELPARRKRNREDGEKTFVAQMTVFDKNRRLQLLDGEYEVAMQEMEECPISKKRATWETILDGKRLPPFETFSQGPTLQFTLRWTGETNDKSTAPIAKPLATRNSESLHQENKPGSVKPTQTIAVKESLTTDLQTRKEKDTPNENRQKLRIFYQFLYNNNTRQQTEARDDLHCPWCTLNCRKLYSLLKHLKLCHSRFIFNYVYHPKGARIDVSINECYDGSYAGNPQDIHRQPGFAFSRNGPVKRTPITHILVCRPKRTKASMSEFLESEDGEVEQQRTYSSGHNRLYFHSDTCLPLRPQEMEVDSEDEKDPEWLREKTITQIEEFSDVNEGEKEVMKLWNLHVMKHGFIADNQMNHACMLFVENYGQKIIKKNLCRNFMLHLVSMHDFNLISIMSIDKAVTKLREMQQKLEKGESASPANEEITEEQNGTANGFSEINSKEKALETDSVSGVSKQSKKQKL
Chain of PRC2 containing wt EZH2 (Q09028 whole entry partner): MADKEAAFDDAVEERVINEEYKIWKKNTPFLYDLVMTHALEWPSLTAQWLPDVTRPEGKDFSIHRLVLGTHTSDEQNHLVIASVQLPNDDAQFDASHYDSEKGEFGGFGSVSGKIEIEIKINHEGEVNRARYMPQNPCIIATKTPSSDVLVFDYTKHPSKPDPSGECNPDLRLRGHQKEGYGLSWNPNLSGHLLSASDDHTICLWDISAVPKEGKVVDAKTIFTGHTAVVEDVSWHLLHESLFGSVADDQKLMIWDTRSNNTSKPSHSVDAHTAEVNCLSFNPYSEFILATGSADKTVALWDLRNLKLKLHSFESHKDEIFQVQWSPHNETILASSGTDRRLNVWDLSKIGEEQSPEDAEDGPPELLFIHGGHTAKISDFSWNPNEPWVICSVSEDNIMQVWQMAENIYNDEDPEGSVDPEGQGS
Chain of PRC2 containing wt EZH2 (Q6ZN18 whole entry partner): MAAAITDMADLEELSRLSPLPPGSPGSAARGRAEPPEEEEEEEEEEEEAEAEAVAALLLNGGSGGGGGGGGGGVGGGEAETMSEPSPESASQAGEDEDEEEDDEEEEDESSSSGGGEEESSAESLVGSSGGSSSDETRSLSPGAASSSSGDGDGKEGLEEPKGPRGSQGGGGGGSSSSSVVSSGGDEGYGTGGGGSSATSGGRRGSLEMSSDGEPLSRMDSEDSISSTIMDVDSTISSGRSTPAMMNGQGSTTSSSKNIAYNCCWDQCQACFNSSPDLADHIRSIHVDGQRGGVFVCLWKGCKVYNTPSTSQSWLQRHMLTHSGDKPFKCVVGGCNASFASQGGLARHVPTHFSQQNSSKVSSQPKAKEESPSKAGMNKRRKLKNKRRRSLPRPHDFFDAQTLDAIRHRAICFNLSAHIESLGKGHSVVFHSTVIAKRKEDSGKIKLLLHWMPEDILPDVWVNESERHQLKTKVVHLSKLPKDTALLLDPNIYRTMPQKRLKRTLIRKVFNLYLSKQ

Regarding `CSc1cc(C)[nH]c(=O)c1CNC(=O)c1cc(Cl)c2c(c1C)OC(C)(C1CCC(N3CC(OC4CC4)C3)CC1)O2` (single isomer, unassigned) [Example 9], the half-maximal inhibitory concentration (IC50) against PRC2 containing wt EZH2 came out at 54 pM. Also, a half-maximal response in the test with H3K27me3 in Hela cells (EC50) required 610 pM.

`CSc1cc(C)[nH]c(=O)c1CNC(=O)c1cc(Cl)c2c(c1C)OC(C)(C1CCC(N3CC(F)C3)CC1)O2` (single isomer, unassigned) [Example 12]: the IC50 on PRC2 containing wt EZH2 amounted to 92 pM. In addition, the EC50 with H3K27me3 in Hela cells came to 590 pM.

`Cc1cc(Cl)c(CNC(=O)c2cc(Cl)c3c(c2C)OC(C)(C2CCC(N4CC(OC(F)F)C4)CC2)O3)c(=O)[nH]1` (single isomer, unassigned) [Example 13] showed an IC50 against PRC2 containing wt EZH2 of 84 pM. In the test on H3K27me3 in Hela cells, this compound came in with an EC50 of 810 pM.

In the case of `COC1CN(C2CCC(C3(C)Oc4c(Cl)cc(C(=O)NCc5c(SC)cc(C)[nH]c5=O)c(C)c4O3)CC2)C1` (single isomer, unassigned) [Example 17, 7-chloro-2-(4-(3-methoxyazetidin-1-yl)cyclohexyl)-2,4-dimethyl-N-((6-methyl-4-(methylthio)-2-oxo-1,2-dihydropyridin-3-yl)methyl)benzo[d][1,3]dioxole-5-carboxamide], the half-maximal inhibitory concentration (IC50) against PRC2 containing wt EZH2 was 43 pM. The same compound showed an EC50 in the test with H3K27me3 in Hela cells of 330 pM.

Turning to `Cc1cc(Cl)c(CNC(=O)c2cc(Cl)c3c(c2C)OC(C)(C2CCC(N4CC(OC5CC5)C4)CC2)O3)c(=O)[nH]1` (single isomer, unassigned) [Example 8, 7-chloro-N-((4-chloro-6-methyl-2-oxo-1,2-dihydropyridin-3-yl)methyl)-2-(4-(3-cyclopropoxyazetidin-1-yl)cyclohexyl)-2,4-dimethylbenzo[d][1,3]dioxole-5-carboxamide], at PRC2 containing wt EZH2, it took 39 pM to reach half-maximal inhibition (IC50). In addition, in the test on H3K27me3 in Hela cells, the EC50 is 520 pM.

At PRC2 containing wt EZH2, `CSc1cc(C)[nH]c(=O)c1CNC(=O)c1cc(Cl)c2c(c1C)OC(C)(C1CCC(N3CC(OC(F)F)C3)CC1)O2` (single isomer, unassigned) [Example 1, 7-chloro-2-(4-(3-(difluoromethoxy)azetidin-1-yl)cyclohexyl)-2,4-dimethyl-N-((6-methyl-4-(methylthio)-2-oxo-1,2-dihydropyridin-3-yl)methyl)benzo[d][1,3]dioxole-5-carboxamide] displayed a half-inhibitory concentration (IC50) of 91 pM. For the same compound, the concentration giving a half-maximal response (EC50) in the test on H3K27me3 in Hela cells stood at 520 pM.

On PRC2 containing wt EZH2, `CSc1nc(C)[nH]c(=O)c1CNC(=O)c1cc(Cl)c2c(c1C)OC(C)(C1CCC(N3CC(OC(F)F)C3)CC1)O2` (single isomer, unassigned) [Example 10] gave a 50% inhibitory concentration (IC50) of 202 pM. This compound yielded a concentration giving a half-maximal response (EC50) in the test on H3K27me3 in Hela cells of 1900 pM.
